SMILES strings stand for the structures.

Test in all cases: NanoBRET
Type in all cases: cell-based

In one assay the target is T1, CDK14/Cyclin Y (Homo sapiens, UniProt O94921).
T1 construct: Full-length kinases were obtained as plasmids cloned in frame with a terminal NanoLuc-fusion; CS1810C178 (CCNY); host or cells: HEK293T
The note with it: read-out: NanoBRET EC50 ± SEM CDK14/Cyclin Y. How it is done:
(§1) The assay was performed as described previously. In brief: Full-length kinases were obtained as plasmids cloned in frame with a terminal NanoLuc-fusion (Promega, Madison, WI, USA), as specified in table (Table S6). Plasmids were transfected into HEK293T cells using FuGENE HD (Promega, E2312) and proteins were allowed to express for 20h. Serially diluted inhibitor and NanoBRET Kinase Tracer (Promega) at a concentration determined previously as the KD,app (Table S5) were pipetted into white 384-well plates (Greiner 781207) using an Echo acoustic dispenser (Labcyte, San Jose, CA, USA). The corresponding protein-transfected cells were added and reseeded at a density of 2.5 × 10^5 cells/mL after trypsinization and resuspending in Opti-MEM without phenol red (Life Technologies, Carlsbad, CA, USA). The system was allowed to equilibrate for 2 h at 37 °C/5% CO2 prior to BRET measurements. To measure BRET, NanoBRET NanoGlo Substrate + Extracellular NanoLuc Inhibitor (Promega, N2540) was added as per the manufacturer’s protocol, and filtered luminescence was measured on a PHERAstar plate reader (BMG Labtech, Ortenberg, Germany) equipped with a luminescence filter pair (450 nm BP filter (donor) and 610 nm LP filter (acceptor)). Competitive displacement data were then graphed using GraphPad Prism 9 software using a normalized 3-parameter curve fit with the following equation: Y = 100/(1 + 10^(X–LogEC50)).

A further assay concerns the target T2, CDK3/Cyclin E1 (Homo sapiens, UniProt Q00526).
T2 construct: Full-length kinases were obtained as plasmids cloned in frame with a terminal NanoLuc-fusion; CS1810C171 (CCNE1); host or cells: HEK293T
The note with it: read-out: NanoBRET EC50 ± SEM CDK3/Cyclin E1. How it is done: as §1

A further assay concerns the target CDK17/Cyclin Y (Homo sapiens, UniProt Q00537). The note with it: read-out: NanoBRET EC50 ± SEM CDK17/Cyclin Y. How it is done:
as §1

A further assay concerns the target CDK10/Cyclin L2 (Homo sapiens, UniProt Q15131). To be noted: read-out: NanoBRET EC50 ± SEM CDK10/Cyclin L2. How it is done: as §1
The target of another assay is T3, CDK11A/Cyclin L2 (Homo sapiens, UniProt Q9UQ88).
T3 sequence (Q9UQ88 1-783): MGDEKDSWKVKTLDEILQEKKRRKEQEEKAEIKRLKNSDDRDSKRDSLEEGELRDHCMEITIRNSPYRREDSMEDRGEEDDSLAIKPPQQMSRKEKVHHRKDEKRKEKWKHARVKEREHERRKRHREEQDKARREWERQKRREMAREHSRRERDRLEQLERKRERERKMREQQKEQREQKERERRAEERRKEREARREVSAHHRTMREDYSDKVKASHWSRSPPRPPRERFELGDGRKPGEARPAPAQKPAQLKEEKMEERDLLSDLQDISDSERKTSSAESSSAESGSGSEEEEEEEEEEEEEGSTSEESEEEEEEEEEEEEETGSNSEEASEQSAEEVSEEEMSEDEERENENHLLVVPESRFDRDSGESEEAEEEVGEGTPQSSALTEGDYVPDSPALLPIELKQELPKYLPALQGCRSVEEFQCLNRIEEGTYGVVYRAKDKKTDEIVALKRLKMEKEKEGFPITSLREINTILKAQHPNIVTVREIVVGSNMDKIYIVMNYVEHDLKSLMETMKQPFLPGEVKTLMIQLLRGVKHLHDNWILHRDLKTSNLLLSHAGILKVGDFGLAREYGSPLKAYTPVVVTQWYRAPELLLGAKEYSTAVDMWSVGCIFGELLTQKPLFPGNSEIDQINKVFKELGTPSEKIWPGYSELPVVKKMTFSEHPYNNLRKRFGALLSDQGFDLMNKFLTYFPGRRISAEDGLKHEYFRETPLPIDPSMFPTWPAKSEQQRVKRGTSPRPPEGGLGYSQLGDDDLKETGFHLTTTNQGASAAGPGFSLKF
T3 sequence (Q96S94 1-520 partner): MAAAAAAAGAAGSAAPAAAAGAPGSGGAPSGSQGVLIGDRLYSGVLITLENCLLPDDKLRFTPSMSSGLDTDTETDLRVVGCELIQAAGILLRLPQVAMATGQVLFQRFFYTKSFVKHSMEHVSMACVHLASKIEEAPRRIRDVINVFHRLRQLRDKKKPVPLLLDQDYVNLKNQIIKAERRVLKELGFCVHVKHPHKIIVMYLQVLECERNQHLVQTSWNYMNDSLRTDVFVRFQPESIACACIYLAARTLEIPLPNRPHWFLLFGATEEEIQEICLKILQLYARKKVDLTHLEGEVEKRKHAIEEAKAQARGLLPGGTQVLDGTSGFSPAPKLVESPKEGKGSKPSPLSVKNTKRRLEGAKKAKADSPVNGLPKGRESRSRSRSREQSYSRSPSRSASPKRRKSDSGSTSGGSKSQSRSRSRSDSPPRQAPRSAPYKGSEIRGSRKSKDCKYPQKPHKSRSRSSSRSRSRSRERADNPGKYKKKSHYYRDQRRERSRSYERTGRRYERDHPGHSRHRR
To be noted: read-out: NanoBRET EC50 ± SEM CDK11A/Cyclin L2. How it is done: as §1

A further assay addresses T4, CDK9/Cyclin T1 (Homo sapiens, UniProt P50750).
T4 construct: Full-length kinases were obtained as plasmids cloned in frame with a terminal NanoLuc-fusion; CS1810C177 (CCNT1); host or cells: HEK293T
To be noted: read-out: NanoBRET EC50 ± SEM CDK9/Cyclin T1. How it is done:
as §1

The target in another assay is T5, CDK6/Cyclin D1 (Homo sapiens, UniProt Q00534).
T5 construct: Full-length kinases were obtained as plasmids cloned in frame with a terminal NanoLuc-fusion; CS1810C118 (CCND1); host or cells: HEK293T
T5 sequence (Q00534 whole entry, the tested form may be a part): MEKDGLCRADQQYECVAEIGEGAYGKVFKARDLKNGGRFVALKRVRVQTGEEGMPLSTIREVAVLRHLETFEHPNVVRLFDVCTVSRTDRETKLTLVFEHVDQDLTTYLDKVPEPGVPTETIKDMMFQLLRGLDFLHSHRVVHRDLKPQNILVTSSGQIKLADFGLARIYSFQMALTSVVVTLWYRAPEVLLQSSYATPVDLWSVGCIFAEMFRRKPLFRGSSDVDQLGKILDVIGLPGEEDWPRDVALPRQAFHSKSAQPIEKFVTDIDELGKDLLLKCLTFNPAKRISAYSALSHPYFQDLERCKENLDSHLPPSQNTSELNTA
T5 sequence (P24385 whole entry partner, the tested form may be a part): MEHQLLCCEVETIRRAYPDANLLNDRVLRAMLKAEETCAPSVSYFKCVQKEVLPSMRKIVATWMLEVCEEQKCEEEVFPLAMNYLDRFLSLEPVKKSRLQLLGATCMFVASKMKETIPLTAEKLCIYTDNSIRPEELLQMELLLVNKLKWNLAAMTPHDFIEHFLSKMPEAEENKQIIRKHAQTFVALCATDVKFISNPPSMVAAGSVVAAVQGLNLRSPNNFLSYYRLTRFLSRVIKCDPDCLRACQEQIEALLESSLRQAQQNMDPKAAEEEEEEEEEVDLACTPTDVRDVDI
To be noted: read-out: NanoBRET EC50 ± SEM CDK6/Cyclin D1. How it is done:
as §1

For another assay, the target named is T6, CDK3/Cyclin E2 (Homo sapiens, UniProt Q00526).
T6 construct: Full-length kinases were obtained as plasmids cloned in frame with a terminal NanoLuc-fusion; CCNE2: 'Promega', no number; host or cells: HEK293T
T6 sequence (Q00526 whole entry, the tested form may be a part): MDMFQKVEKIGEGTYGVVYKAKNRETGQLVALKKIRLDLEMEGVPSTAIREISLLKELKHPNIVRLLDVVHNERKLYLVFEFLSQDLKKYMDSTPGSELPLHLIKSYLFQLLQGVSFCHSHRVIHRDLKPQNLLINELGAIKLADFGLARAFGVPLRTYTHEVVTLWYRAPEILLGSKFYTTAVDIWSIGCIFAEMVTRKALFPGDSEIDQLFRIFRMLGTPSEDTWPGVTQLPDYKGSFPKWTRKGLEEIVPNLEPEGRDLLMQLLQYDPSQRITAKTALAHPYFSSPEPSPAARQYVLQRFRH
T6 sequence (O96020 whole entry partner, the tested form may be a part): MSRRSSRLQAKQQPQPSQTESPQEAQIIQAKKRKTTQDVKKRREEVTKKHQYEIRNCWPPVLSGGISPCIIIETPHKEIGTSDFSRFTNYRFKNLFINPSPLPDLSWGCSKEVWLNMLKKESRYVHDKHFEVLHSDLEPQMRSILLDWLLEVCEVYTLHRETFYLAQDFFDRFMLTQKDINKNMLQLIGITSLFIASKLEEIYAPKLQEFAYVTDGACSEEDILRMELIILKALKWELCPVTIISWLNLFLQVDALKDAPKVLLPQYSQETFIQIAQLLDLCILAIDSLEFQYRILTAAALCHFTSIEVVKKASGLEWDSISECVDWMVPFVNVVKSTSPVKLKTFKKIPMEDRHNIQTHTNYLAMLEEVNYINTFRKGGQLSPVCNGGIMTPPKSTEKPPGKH
The note with it: read-out: NanoBRET EC50 ± SEM CDK3/Cyclin E2. How it is done:
as §1

The target of another assay is CDK11B/Cyclin K (Homo sapiens, UniProt P21127). To be noted: read-out: NanoBRET EC50 ± SEM CDK11B/Cyclin K. How it is done: as §1

T4 sequence (P50750 whole entry, the tested form may be a part): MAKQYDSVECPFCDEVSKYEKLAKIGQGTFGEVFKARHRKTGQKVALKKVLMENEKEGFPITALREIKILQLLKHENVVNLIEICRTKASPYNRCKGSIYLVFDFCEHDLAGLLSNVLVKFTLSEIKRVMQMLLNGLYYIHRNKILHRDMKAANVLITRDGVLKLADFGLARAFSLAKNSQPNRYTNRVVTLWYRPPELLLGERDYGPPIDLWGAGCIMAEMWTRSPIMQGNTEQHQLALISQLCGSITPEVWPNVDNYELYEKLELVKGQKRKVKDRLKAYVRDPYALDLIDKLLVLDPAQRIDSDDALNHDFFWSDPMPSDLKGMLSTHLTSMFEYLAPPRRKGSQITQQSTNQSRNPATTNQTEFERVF
T4 sequence (O60563 whole entry partner, the tested form may be a part): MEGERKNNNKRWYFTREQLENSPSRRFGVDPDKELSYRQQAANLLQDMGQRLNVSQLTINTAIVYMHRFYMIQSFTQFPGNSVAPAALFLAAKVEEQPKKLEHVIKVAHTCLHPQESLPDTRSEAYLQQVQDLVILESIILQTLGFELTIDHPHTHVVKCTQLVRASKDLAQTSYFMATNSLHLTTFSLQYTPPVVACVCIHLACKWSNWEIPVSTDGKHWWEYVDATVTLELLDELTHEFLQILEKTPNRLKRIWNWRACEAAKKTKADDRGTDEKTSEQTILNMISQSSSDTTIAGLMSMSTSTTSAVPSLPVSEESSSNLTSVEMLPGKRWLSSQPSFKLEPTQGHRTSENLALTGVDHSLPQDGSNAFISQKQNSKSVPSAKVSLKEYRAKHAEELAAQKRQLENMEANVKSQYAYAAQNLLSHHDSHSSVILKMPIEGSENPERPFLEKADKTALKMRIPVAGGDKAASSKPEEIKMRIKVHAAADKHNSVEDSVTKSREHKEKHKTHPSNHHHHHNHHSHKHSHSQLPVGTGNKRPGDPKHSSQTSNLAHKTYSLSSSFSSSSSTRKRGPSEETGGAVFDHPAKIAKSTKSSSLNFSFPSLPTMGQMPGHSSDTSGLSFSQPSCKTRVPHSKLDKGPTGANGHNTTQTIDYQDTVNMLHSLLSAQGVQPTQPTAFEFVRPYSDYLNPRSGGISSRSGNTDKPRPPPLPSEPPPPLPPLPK
Chain of CDK17/Cyclin Y (Q00537 whole entry): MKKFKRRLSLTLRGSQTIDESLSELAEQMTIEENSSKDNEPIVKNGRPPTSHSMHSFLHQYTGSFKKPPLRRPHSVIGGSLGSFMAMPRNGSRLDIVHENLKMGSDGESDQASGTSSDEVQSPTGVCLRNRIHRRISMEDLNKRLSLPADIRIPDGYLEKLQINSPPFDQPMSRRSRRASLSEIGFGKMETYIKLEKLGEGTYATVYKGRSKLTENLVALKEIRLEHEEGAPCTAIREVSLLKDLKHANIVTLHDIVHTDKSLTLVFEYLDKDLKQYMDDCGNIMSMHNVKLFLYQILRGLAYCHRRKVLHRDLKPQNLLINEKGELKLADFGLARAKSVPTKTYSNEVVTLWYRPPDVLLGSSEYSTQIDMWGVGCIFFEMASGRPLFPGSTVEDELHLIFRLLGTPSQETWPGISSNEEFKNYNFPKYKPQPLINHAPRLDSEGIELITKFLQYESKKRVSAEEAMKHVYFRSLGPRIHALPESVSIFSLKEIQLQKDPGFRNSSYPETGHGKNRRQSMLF
Chain of CDK17/Cyclin Y (Q8ND76 2-341 partner limits assumed): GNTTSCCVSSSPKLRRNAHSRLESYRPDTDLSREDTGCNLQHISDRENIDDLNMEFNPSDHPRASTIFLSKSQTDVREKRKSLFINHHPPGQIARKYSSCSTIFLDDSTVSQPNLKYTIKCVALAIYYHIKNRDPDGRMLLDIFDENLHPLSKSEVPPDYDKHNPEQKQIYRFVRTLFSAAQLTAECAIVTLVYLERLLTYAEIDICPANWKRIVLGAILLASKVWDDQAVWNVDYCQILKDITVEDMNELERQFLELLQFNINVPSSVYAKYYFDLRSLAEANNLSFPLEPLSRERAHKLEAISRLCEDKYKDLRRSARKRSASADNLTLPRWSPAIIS
T2 sequence (Q00526 whole entry, the tested form may be a part): as the sequence (Q00526 whole entry, the tested form may be a part) above
T2 sequence (P24864 whole entry partner, the tested form may be a part): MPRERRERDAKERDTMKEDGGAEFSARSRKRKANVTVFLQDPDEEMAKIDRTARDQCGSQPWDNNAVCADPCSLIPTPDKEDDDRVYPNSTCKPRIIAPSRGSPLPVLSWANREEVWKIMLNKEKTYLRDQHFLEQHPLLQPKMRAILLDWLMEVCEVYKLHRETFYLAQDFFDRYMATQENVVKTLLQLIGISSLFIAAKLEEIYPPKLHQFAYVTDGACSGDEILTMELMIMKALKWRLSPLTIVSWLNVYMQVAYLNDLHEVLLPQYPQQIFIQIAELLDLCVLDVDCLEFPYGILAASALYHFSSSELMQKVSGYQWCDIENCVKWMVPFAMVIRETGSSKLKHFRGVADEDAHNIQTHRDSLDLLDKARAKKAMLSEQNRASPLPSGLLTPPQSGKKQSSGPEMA
Chain of CDK10/Cyclin L2 (Q15131 whole entry): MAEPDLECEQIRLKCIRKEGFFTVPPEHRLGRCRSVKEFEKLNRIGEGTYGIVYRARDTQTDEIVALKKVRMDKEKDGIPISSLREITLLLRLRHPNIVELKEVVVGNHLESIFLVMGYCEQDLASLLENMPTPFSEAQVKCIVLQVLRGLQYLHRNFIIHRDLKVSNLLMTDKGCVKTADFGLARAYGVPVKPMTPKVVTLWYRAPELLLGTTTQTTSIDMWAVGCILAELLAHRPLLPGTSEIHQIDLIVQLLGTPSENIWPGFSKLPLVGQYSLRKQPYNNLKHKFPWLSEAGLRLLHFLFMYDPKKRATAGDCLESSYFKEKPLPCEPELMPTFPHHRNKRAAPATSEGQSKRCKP
T1 sequence (O94921 whole entry, the tested form may be a part): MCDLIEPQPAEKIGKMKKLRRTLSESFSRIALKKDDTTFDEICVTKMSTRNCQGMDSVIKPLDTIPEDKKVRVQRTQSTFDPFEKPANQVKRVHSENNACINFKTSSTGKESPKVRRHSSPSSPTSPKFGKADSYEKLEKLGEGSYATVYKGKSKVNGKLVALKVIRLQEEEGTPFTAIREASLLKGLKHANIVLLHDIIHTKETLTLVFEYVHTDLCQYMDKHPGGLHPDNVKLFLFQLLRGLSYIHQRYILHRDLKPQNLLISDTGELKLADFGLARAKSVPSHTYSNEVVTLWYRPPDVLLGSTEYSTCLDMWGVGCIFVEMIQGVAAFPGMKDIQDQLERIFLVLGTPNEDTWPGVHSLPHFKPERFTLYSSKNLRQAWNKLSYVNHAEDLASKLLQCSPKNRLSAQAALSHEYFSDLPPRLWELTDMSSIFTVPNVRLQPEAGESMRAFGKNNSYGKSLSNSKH
T1 sequence (Q8ND76 2-341 partner limits assumed): as the sequence (Q8ND76 2-341 partner limits assumed) above

Consider `N#CCc1ccc(Nc2nccc(Nc3cc(C4CC4)[nH]n3)n2)cc1` [compound 1, reference compound], for which the EC50 on CDK14/Cyclin Y was 33.7 ± 8.2 nM; on CDK3/Cyclin E1, 11.8 ± 4.5 nM; at CDK17/Cyclin Y it was 9.9 ± 1.2 nM; on CDK10/Cyclin L2 it was 325 ± 36.4 nM; on CDK11A/Cyclin L2, 760 ± 460 nM; at CDK9/Cyclin T1 it was 86.5 ± 10.9 nM. Also, the EC50 is 10.5 ± 3.8 nM at CDK6/Cyclin D1, 38.4 ± 30.4 nM at CDK3/Cyclin E2 and 926 ± 649 nM on CDK11B/Cyclin K.

For the compound `CC(C)(C)OC(=O)Nc1ccc(CNc2nccc(Nc3cc(C(=O)OC(C)(C)C)[nH]n3)n2)cc1` [43d, tert-butyl 3-((2-((4-((tert-butoxycarbonyl)amino)benzyl)amino)pyrimidin-4-yl)amino)-1H-pyrazole-5-carboxylate], the EC50 turned out to be 72.1 nM at CDK14/Cyclin Y; 2750 ± 959 nM on CDK3/Cyclin E1; 21.2 nM at CDK17/Cyclin Y; 651 nM on CDK10/Cyclin L2; 3460 ± 1840 nM at CDK11A/Cyclin L2; 805 ± 240 nM at CDK9/Cyclin T1. The EC50 on CDK6/Cyclin D1 was 1740 ± 206 nM; at CDK3/Cyclin E2 it was 16100 ± 7620 nM; at CDK11B/Cyclin K, 7960 ± 3290 nM.

On to `CC(C)OC(=O)c1cc(Nc2ccnc(NCc3ccc(NC(=O)OC(C)(C)C)cc3)n2)n[nH]1` [42d, isopropyl 3-((2-((4-((tert-butoxycarbonyl)amino)benzyl)amino)pyrimidin-4-yl)amino)-1H-pyrazole-5-carboxylate], for which the EC50 at CDK14/Cyclin Y was determined as 88.2 ± 48.8 nM; on CDK3/Cyclin E1, 1270 ± 522 nM; at CDK17/Cyclin Y, 33.7 ± 2.5 nM; at CDK10/Cyclin L2, 333.6 ± 0.2 nM; on CDK11A/Cyclin L2 it was 2090 ± 599 nM; at CDK9/Cyclin T1, 408 ± 140 nM. The EC50 on CDK6/Cyclin D1 came to 959 ± 391 nM; on CDK3/Cyclin E2, 26900 ± 13400 nM; at CDK11B/Cyclin K it was 3860 ± 1050 nM.

As for `COC(=O)c1cc(Nc2ccnc(NCc3ccc(NC(=O)OC(C)(C)C)cc3)n2)[nH]n1` [21i, methyl 5-((2-((4-((tert-butoxycarbonyl)amino)benzyl)amino)pyrimidin-4-yl)amino)-1H-pyrazole-3-carboxylate], the EC50 at CDK14/Cyclin Y was determined as 1370 ± 374 nM; on CDK3/Cyclin E1, 12400 ± 4610 nM; at CDK17/Cyclin Y it was 673 nM; on CDK10/Cyclin L2 it was 7930 ± 2930 nM; at CDK11A/Cyclin L2 it was 20500 ± 11800 nM; at CDK9/Cyclin T1, 6870 ± 2190 nM. For the same compound, the EC50 at CDK6/Cyclin D1 came to 7450 ± 1740 nM; on CDK3/Cyclin E2 it was 38800 ± 4640 nM; at CDK11B/Cyclin K it was 22900 ± 3740 nM.

These data come from PMC9736855, “Discovery of 3-Amino-1H-pyrazole-Based Kinase Inhibitors to Illuminate the Understudied PCTAIRE Family” (International Journal of Molecular Sciences, 2022).
